Results taken from patent US7786161B2, “Carboxylic acid derivatives and pharmaceutical agent comprising the same as active ingredient” (ONO Pharmaceutical Co., Ltd., priority 2001, dated 2010).
pKi: −log10 of the molar value.

What was measured:
Test in all cases: Receptor-binding experiment using cells expressing prostanoid receptor subtypes (3H-PGE2 binding, CHO cell membrane)
[1] = target: T1, EP4 receptor (Mus musculus, UniProt P32240); conditions: 3H-PGE2 (2.5 nM) binding inhibition, membrane of CHO cells expressing mouse EP4; Ki=IC50/(1+([C]/Kd))
T1 construct: expressed in transfected cells; host or cells: CHO cells
T1 sequence (P32240 whole entry): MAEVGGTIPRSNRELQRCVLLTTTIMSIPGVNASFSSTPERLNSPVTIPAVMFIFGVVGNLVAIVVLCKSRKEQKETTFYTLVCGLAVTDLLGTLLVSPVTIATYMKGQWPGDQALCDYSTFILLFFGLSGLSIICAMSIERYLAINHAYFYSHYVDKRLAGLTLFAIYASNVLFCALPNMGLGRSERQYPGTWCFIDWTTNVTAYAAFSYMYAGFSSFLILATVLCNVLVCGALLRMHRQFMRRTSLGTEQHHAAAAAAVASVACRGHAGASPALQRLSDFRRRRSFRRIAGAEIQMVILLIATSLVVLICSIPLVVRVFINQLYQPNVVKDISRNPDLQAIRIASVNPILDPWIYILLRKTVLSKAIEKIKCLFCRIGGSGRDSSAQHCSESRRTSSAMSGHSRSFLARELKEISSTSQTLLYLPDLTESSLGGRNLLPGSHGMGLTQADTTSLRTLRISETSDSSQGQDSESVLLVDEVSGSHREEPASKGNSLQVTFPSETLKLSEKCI
Procedure: (§1) The pharmacological activity is confirmed by the following receptor-binding experiment by using cells expressing prostanoid receptor subtypes. • (i) Receptor-binding experiment by using cells expressing prostanoid receptor subtypes In accordance with the method of Sugimoto et al. [J. Biol. Chem., 267, 6463-6466 (1992)], CHO cells respectively expressing prostanoid receptor subtypes (mouse EP1, EP2, EP3, and EP4) were prepared to give membrane preparations.
(§2) Each membrane fraction (50 μl) thus prepared and a reaction solution (150 μl) containing ^3H-PGE2 were incubated at room temperature for 1 hour. After ceasing the reaction with an ice-cooled buffer (3 ml), the bound ^3H-PGE2 was trapped in a glass filter (GF/B) by filtering with suction under reduced pressure. Then the bound radioactivity was measured with a liquid scintillator.
(§3) Kd value and Bmax value were determined by Scatchard plots [Ann. N.Y. Acad. Sci., 51, 660 (1949)]. Nonspecific bond was determined as bond in the presence of unlabeled PGE2 in excess (2.5 μM). The ^3H-PGE2-binding inhibitory effects of the invention compounds were measured by adding ^3H-PGE2 (2.5 nM) and the invention compounds at various concentrations. In every reaction, the following buffer was employed.
(§4) Buffer: potassium phosphate (10 mM, pH 6.0), EDTA (1 mM), MgCl2 (10 mM), NaCl (0.1 M).
(§5) The dissociation constant Ki (μM) of each compound was determined in accordance with the following formula. […] Ki=IC50/(1+([C]/Kd))

[2] = target: T2, EP1 receptor (Mus musculus, UniProt P35375); conditions: 3H-PGE2 (2.5 nM) binding inhibition, membrane of CHO cells expressing mouse EP1; Ki=IC50/(1+([C]/Kd))
T2 construct: expressed in transfected cells; host or cells: CHO cells
T2 sequence (P35375 1-405): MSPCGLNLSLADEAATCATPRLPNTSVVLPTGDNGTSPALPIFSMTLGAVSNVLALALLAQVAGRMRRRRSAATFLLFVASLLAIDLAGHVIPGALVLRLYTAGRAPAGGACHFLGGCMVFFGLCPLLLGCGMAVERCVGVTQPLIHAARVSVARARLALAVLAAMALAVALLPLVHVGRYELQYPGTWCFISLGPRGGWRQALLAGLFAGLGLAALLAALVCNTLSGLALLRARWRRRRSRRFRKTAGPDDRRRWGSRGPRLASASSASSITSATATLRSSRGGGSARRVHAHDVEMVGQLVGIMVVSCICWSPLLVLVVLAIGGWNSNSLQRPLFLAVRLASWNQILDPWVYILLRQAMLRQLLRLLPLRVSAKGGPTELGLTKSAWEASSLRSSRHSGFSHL
Procedure: as §1, §2, §3, §4, §5

[3] = target: T3, EP3 receptor (Mus musculus, UniProt P30557); conditions: 3H-PGE2 (2.5 nM) binding inhibition, membrane of CHO cells expressing mouse EP3; Ki=IC50/(1+([C]/Kd))
T3 construct: expressed in transfected cells; host or cells: CHO cells
T3 sequence (P30557 1-365): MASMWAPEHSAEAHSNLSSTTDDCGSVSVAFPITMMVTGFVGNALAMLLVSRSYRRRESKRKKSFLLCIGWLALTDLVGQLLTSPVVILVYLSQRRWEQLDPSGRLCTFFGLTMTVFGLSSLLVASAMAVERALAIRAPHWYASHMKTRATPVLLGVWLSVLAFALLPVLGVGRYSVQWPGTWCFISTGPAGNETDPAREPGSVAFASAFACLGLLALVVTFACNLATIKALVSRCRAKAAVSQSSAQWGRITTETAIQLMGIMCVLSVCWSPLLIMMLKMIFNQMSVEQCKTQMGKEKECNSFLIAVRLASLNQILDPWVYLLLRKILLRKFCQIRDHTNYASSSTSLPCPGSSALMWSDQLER
Procedure: as §1, §2, §3, §4, §5

[4] = target: T4, EP2 receptor (Mus musculus, UniProt Q62053); conditions: 3H-PGE2 (2.5 nM) binding inhibition, membrane of CHO cells expressing mouse EP2; Ki=IC50/(1+([C]/Kd))
T4 construct: expressed in transfected cells; host or cells: CHO cells
T4 sequence (Q62053 whole entry): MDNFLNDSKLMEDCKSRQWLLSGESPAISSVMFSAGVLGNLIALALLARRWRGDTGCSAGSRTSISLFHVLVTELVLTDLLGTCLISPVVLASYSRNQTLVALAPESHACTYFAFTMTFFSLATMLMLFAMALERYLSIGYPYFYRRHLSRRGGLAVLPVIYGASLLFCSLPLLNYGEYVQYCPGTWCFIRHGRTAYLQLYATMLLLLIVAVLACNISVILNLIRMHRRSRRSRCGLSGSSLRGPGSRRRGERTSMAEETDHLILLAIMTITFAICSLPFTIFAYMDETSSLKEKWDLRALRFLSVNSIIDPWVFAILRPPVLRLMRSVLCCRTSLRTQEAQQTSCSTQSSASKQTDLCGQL
Procedure: as §1, §2, §3, §4, §5

SMILES: CSCc1ccc(CCCC(=O)O)c(NC(=O)C(C)c2cccc3ccccc23)c1 (stereo not shown) [Example 8(13), 4-(2-((2-(naphthalen-1-yl)propanoyl)amino)-4-methylthiomethylphenyl)butanoic acid]
- pKi [1]: 7.42
- pKi [2]: < 5.00
- pKi [3]: 6.57
- pKi [4]: < 5.00
